# Reference: paper PMC11903455 (Frontiers in Pharmacology, 2025)
# Counter-ions that a name gives are not always drawn. Like-named read-outs stand apart in the source and are kept apart here.
# Assays:
# [1] = Crocetin content of plasma sample by SERS and liquid phase determination; format: in vivo; conditions: SD, rat, oral, 4.5 mg kg^−1, 0.5 h medium-dose plasma
# Procedure: The samples were analyzed by high performance liquid chromatography.
# The treatment of plasma samples is described in Procedure 2.2.3. 50 uL of treated plasma was added into silver nanoparticle solution with an equal volume concentration of 10 mg/mL 50 uL mixed solution was placed on a round quartz sheet with a diameter of 1 cm, […] and the Raman spectrum was detected and recorded. Detection conditions: scanning time 3 s, laser power: 80 mW. Spectra are acquired by Optosky Raman microscopy software.
# A standard curve was prepared based on the peak intensity of the characteristic peak at 1,532 cm^−1 and the content was determined, as shown in Figure 10C.
# Caco-2 cells = conditions: no method or reference given; cited from earlier work
# [2] = Stability of crocetin in plasma samples; format: in vitro ADME, rat; conditions: within one week at -20°C, n = 6
# Procedure: The procedures for precision, stability, limit of quantitation, and sample recovery are described in the Supplementary Material S2.4 Methodological Investigations section.
# Plasma samples were collected 30 minutes after administration (n=6). The stability of the samples was calculated within one week at -20°C.
# hippocampal neurons = experiment: Nissl staining of hippocampus (DG, CA1, CA3); format: in vivo, rat; conditions: for neuronal cell damage in the dentate gyrus region: after administration, corticosterone model rats; for number of Nissl bodies, hippocampal CA3: crocin I low, medium, high dose, positive drug 5 mg/kg; for number of Nissl bodies, hippocampal CA1: high dose crocin I (9 mg/kg), positive control drug 5 mg/kg
# Description: (§1) Anxiety-like depression rat model is induced by chronic induction of corticosterone. Five-week-old SD male rats (8/cage) randomly received 0.45% soluble Corticosterone suspension in β-cyclodextrin. The number of rats in each group has been supplemented in part 1.2 of the manuscript method. Specifically described as “The rats were randomly divided into 7 groups, 8 rats in each group, a total of 56 rats. The number of groups were model group, blank control group, positive drug group, low, middle, and high dose of Crocin I group, and gardenia extract group respectively. The model was established by subcutaneous injection of corticosterone (20 mg⋅kg^−1) for 21 consecutive days. […] The control group and model group were given the same volume of normal saline. Solution preparation methods are described in Supplementary Material S1.1.
# (§2) The rats were deeply anesthetized with 2% sodium pentobarbital. After 15 min, the rats heart were perfused and fixed with normal saline and 4% paraformaldehyde, respectively. Then the brain tissues of rats in different groups were collected. The brain tissue was cryosectioned at a thickness of 3 μm, and then Nissl staining was performed to analyze the hippocampal region of interest. The staining process is detailed in Supplementary Material S1.4.
# After the behavioral evaluation of the rats, the rats were anesthetized and decapitated to take the brain. The brain tissue was fixed with 4% paraformaldehyde for 24 hours. Rinse with normal saline to remove the residual fixative. Dehydration with 30% sucrose solution. It was embedded with an OTC embedding agent, and after it was completely frozen, the shape was trimmed and the sections were frozen. According to the localization map of rat brain sections, the target locations of the hippocampus and prefrontal cortex of rats were selected and sectioned continuously in the coronal plane with a thickness of 3 µm. Stick the slides with adhesive slides and bake the slides in an oven at 37 ℃ for half an hour. The slices were stained with methyl violet dye and rinsed with distilled water. Nissl Differentiation was used to differentiate for 5 s and most of the staining solution was removed. The slides were placed successively in different concentrations of ethanol and gradient dehydration (0%, 50%, 75%, and 95% ethanol, the section and background color should be observed under a microscope during dehydration). After dehydration, the sections were sealed with transparent and neutral gum in anhydrous ethanol Ⅰ, Ⅱ, anhydrous ethanol-xylene (1:1), xylene Ⅰ, and Ⅱ solution, respectively, and observed under a microscope.
# [3] = tested on: γ-aminobutyric acid (GABA); experiment: ELISA of brain tissue: GABA; format: in vivo, rat
# Procedure: (§3) Anxiety-like depression rat model is induced by chronic induction of corticosterone. Five-week-old SD male rats (8/cage) randomly received 0.45% soluble Corticosterone suspension in β-cyclodextrin. The number of rats in each group has been supplemented in part 1.2 of the manuscript method. Specifically described as “The rats were randomly divided into 7 groups, 8 rats in each group, a total of 56 rats. […] The model was established by subcutaneous injection of corticosterone (20 mg⋅kg^−1) for 21 consecutive days. […] The control group and model group were given the same volume of normal saline. Solution preparation methods are described in Supplementary Material S1.1.
# (§4) The contents of Serotonin transporter (5-HTT, JW.RA1057), dopamine (DA, JW.RA1621), γ-aminobutyric acid (GABA, JW.RA1389) and noradrenaline (NA, JW.RA2154) in the hippocampus were measured by ELISA kit. The tissue samples were added to PBS low-temperature homogenate according to 1:10, and the homogenate was centrifuged at 10,000 rpm at 4 °C […] for 10 min. The supernatant was taken to detect the content of the sample.
# dopamine (DA) = experiment: ELISA of brain tissue: DA; format: in vivo, rat; conditions: for brain DA compared with the control group: crocin I high-dose group, positive drug group
# Procedure: as §3, §4
# cortical neurons = experiment: Nissl staining of prefrontal cortex; format: in vivo, rat; conditions: crocin I low, medium, high doses; Gardenia extract 0.9 g/kg; positive drug 5 mg/kg
# Description: as §1, §2
# After the behavioral evaluation of the rats, the rats were anesthetized and decapitated to take the brain. […]
# noradrenaline (NA) = experiment: ELISA of brain tissue: NA; format: in vivo, rat
# Procedure: as §3, §4
# [4] = tested on: rats with corticosterone-induced anxiety-like depression; experiment: Sucrose (sugar water) preference test; format: in vivo, rat; conditions: corticosterone model rats; crocin I 2.25, 4.5, 9 mg/kg intragastric
# Description: as §1
# (§5) After the model was established. […] Depression was assessed by the preference for sweet foods in healthy rats ([Tan et al., 2020]) Details were provided in the Additional file: SI 1.2-1.3.
# 1% sucrose aqueous solution was used in the experiment. […] On the day of the test, two bottles containing the same volume of 1% sucrose solution and ordinary water were put into cages, weighed before and after drinking water, and the liquid consumption in the two bottles within 24 hours was calculated.
# [5] = tested on: Serotonin transporter (5-HTT); experiment: ELISA of brain tissue: 5-HTT; format: in vivo, rat
# Procedure: as §3, §4
# [6] = no reference given; cited from earlier work
# [7] = tested on: rats with corticosterone-induced anxiety-like depression; experiment: Morris water maze test; format: in vivo, rat
# Description: Anxiety-like depression rat model is induced by chronic induction of corticosterone. Five-week-old SD male rats (8/cage) randomly received 0.45% soluble Corticosterone suspension in β-cyclodextrin. The number of rats in each group has been supplemented in part 1.2 of the manuscript method. Specifically described as “The rats were randomly divided into 7 groups, 8 rats in each group, a total of 56 rats. The number of groups were model group, blank control group, positive drug group, low, middle, and high dose of Crocin I group, and gardenia extract group respectively. The model was established by subcutaneous injection of corticosterone (20 mg⋅kg^−1) for 21 consecutive days. […] The control group and model group were given the same volume of normal saline. […]
# as §5
# The water maze round pool was divided into Ⅰ, Ⅱ, Ⅲ, and Ⅳ quadrants. […] The position was placed once along the Ⅰ, Ⅱ, Ⅲ, and Ⅳ quadrants respectively, and the time of finding the platform within 60 seconds was recorded. […] After 5 days, the platform was removed, the animals were put into the pool from the original platform, and the number of rats crossing the target quadrant within 60 seconds was recorded.
# [8] = gardenia extract 0.9 g/kg, positive drug paroxetine hydrochloride 5 mg/kg
smiles,measurement,setting,value
CC(/C=C/C=C(\C)C(=O)O)=C\C=C\C=C(C)\C=C\C=C(/C)C(=O)O [crocetin],concentration at 0.5 h,"[1]; AgNPs, peak 1,532 cm^-1, read-out: crocetin content in plasma by SERS",433 ng/mL
same,concentration at 0.5 h,"[1]; same sample, read-out: crocetin content in plasma by liquid phase determination",486 ng/mL
same,apparent permeability coefficient Papp,Caco-2 cells,high
same,"stability in plasma samples: Accuracy (RE, %)",[2]; High dose plasma sample 837.96 ng/mL,99.64%
same,"stability in plasma samples: Accuracy (RE, %)",[2]; Low dose plasma sample 292.60 ng/mL,97.76%
same,"stability in plasma samples: Accuracy (RE, %)",[2]; Medium dose plasma sample 527.32 ng/mL,97.14%
"Fc1ccc([C@@H]2CCNC[C@H]2COc2ccc3c(c2)OCO3)cc1 [Positive, paroxetine hydrochloride, reference compound]",neuronal cell damage in the dentate gyrus region,hippocampal neurons,significantly improved
same,"number of Nissl bodies, hippocampal CA3",hippocampal neurons; gardenia extract 0.9 g/kg,no significant increase
same,"number of Nissl bodies, hippocampal CA1",hippocampal neurons; gardenia extract 0.9 g/kg,significantly increased
same,GABA expression level in brain tissue,[3]; [8],7.34 ± 0.30 µmol/L
same,brain DA compared with the control group,dopamine (DA),no significant difference
same,DA expression level in brain tissue,dopamine (DA); [8],81.70 ± 1.94 nmol/L
same,"number of Nissl bodies, prefrontal cortex",cortical neurons,increase
same,NA expression level in brain tissue,noradrenaline (NA); [8],4.64 ± 0.09 ng/mL
"CC(/C=C/C=C(\C)C(=O)O[C@@H]1O[C@H](CO[C@@H]2O[C@H](CO)[C@@H](O)[C@H](O)[C@H]2O)[C@@H](O)[C@H](O)[C@H]1O)=C\C=C\C=C(C)\C=C\C=C(/C)C(=O)O[C@@H]1O[C@H](CO[C@@H]2O[C@H](CO)[C@@H](O)[C@H](O)[C@H]2O)[C@@H](O)[C@H](O)[C@H]1O [Crocin I, crocin I]",neuronal cell damage in the dentate gyrus region,hippocampal neurons,significantly improved
same,dentate gyrus morphology (angle/shape),hippocampal neurons; crocin I high dose 9 mg/kg,significant changes
same,dentate gyrus morphology (angle/shape),hippocampal neurons; crocin I low dose 2.25 mg/kg,no significant change
same,"number of Nissl bodies, hippocampal CA3",hippocampal neurons; gardenia extract 0.9 g/kg,increased in a dependent manner
same,dentate gyrus morphology (angle/shape),hippocampal neurons; crocin I middle dose 4.5 mg/kg,significant changes
same,"number of Nissl bodies, hippocampal CA1",hippocampal neurons; gardenia extract 0.9 g/kg,significantly increased
same,"number of Nissl bodies, dentate gyrus","hippocampal neurons; high-dose crocin I (9 mg/kg), gardenia extract 0.9 g/kg",increased significantly
same,sugar water preference,[4],dose-dependent
same,GABA expression level in brain tissue,[3]; High dose crocin I 9 mg/kg,6.83 ± 0.29 µmol/L
same,GABA expression level in brain tissue,"[3]; Low dose crocin I 2.25 mg/kg, control 7.43, model 4.99",5.28 ± 0.21 µmol/L
same,GABA expression level in brain tissue,[3]; Medium dose crocin I 4.5 mg/kg,5.49 ± 0.29 µmol/L
same,GABA content compared with the model group,[3]; crocin I low-dose group,no significant difference
same,5-HTT expression level in brain tissue,[5]; High dose crocin I 9 mg/kg,427.64 ± 7.00 ng/mL
same,5-HTT expression level in brain tissue,"[5]; Low dose crocin I 2.25 mg/kg, control 238.58, model 573.69",374.76 ± 13.24 ng/mL
same,5-HTT expression level in brain tissue,[5]; Medium dose crocin I 4.5 mg/kg,459.21 ± 5.21 ng/mL
same,content of 5-HTT compared with the model group,"[5]; crocin I low-, medium-, high-dose, gardenia extract, positive drug, P < 0.001",significantly reduced
same,apparent permeability coefficient Papp,Caco-2 cells,low
same,oil-water partition coefficient (logP),[6],−1.03
same,improvement of spatial memory ability,"[7]; crocin I 2.25, 4.5, 9 mg/kg",dose-dependent
same,escape latency,"[7]; crocin I low, middle and high dose groups (2.25, 4.5, 9 mg/kg)",decreased
same,DA expression level in brain tissue,dopamine (DA); High dose crocin I 9 mg/kg,80.22 ± 2.64 nmol/L
same,DA expression level in brain tissue,"dopamine (DA); Low dose crocin I 2.25 mg/kg, control 84.66, model 169.17",147.33 ± 3.72 nmol/L
same,DA expression level in brain tissue,dopamine (DA); Medium dose crocin I 4.5 mg/kg,137.22 ± 1.31 nmol/L
same,brain DA compared with the control group,dopamine (DA),no significant difference
same,"number of Nissl bodies, prefrontal cortex",cortical neurons,increased
same,NA expression level in brain tissue,noradrenaline (NA); High dose crocin I 9 mg/kg,5.60 ± 0.02 ng/mL
same,NA expression level in brain tissue,"noradrenaline (NA); Low dose crocin I 2.25 mg/kg, control 3.78, model 8.08",5.99 ± 0.02 ng/mL
same,NA expression level in brain tissue,noradrenaline (NA); Medium dose crocin I 4.5 mg/kg,6.73 ± 0.18 ng/mL
